Tested on: sperm cells
Test: effects of detection agents on the motility of sperm cells (microscopic analysis)
Assay type: cell-based
Conditions: 60 min, ambient temperature; for Cells: cells in total / Cells: motile cells: 50:50 with sperm sample 60/72
Protocol: The possible effects of two detection agents, MTT and crystal violet, on the motility of sperm cells were tested. Stock solutions of MTT and crystal violet of 5 mg/ml and 1 mg/ml, respectively, were prepared, and these were diluted two-fold serially. The detection agent solutions were mixed with sperm samples comprising 60 million motile cells per milliliter and 72 million cells per milliliter in total (denoted 60/72) in a 50:50 ratio and the mixtures were incubated for 60 min at ambient temperature before analysing the cells microscopically.

- Cells: cells in total (Crystal violet 0.125 mg/ml): 56 million per milliliter
- Cells: motile cells (Crystal violet 0.125 mg/ml): 37 million per milliliter
- Cells: cells in total (Crystal violet 0.25 mg/ml): 56 million per milliliter
- Cells: motile cells (Crystal violet 0.25 mg/ml): 32 million per milliliter
- Cells: cells in total (Crystal violet 0.5 mg/ml): 43 million per milliliter
- Cells: motile cells (Crystal violet 0.5 mg/ml): 27 million per milliliter
- Cells: cells in total (Crystal violet 1 mg/ml): 63 million per milliliter
- Cells: motile cells (Crystal violet 1 mg/ml): 40 million per milliliter
- ratio of motile versus non-motile cells (% motile) (concentrations of Table 3): not affected
SMILES: CN(C)c1ccc(C(=C2C=CC(=[N+](C)C)C=C2)c2ccc(N(C)C)cc2)cc1 [Crystal violet, crystal violet]

Reference: patent US12415184B2, “Device for analysis of cellular motility” (MOTILITYCOUNT APS, priority 2013, dated 2025)
